In ChEMBL document CHEMBL3217491, “Design, synthesis and biological evaluation of imidazopyridine/pyrimidine-chalcone derivatives as potential anticancer agents” (2010):
Active and inactive are the calls of the source. The calls are words filed in the database; no cut-off is given here.

Columns and labels:
MCF7 [1] = assay: Cell cycle arrest in human MCF7 cells assessed as accumulation at S phase at 4 uM after 24 hrs by propidium iodide staining-based flow cytometry (reference value: 20.17%); assay type: functional
MCF7 [2] = assay: Growth inhibition of human MCF7 cells assessed as cell viability at 4 uM after 24 hrs by MTT assay; assay type: functional, cell-based
MCF7 [3] = assay: Cell cycle arrest in human MCF7 cells assessed as accumulation at G2/M phase at 4 uM after 24 hrs by propidium iodide staining-based flow cytometry (reference value: 15.79%); assay type: functional
MCF7 [4] = assay: Induction of apoptosis in human MCF7 cells expressing P21 promoter -145/+8 with luciferase gene assessed as upregulation of p21 protein expression at 4 uM by Western blot analysis relative to control; assay type: functional, cell-based
MCF7 [5] = assay: Cell cycle arrest in human MCF7 cells assessed as accumulation at G0/G1 phase at 4 uM after 24 hrs by propidium iodide staining-based flow cytometry (reference value: 64.04%); assay type: functional
[6] = Growth inhibition of human UACC62 cells after 48 hrs by SRB assay; assay type: functional; conditions: UACC-62, 48 h
[7] = Growth inhibition of human OVCAR8 cells after 48 hrs by SRB assay; assay type: functional; conditions: OVCAR-8, 48 h
DU-145 = assay: Growth inhibition of human DU145 cells after 48 hrs by SRB assay; assay type: functional; conditions: DU-145, 48 h
IGROV-1 = assay: Growth inhibition of human IGROV1 cells after 48 hrs by SRB assay; assay type: functional; conditions: IGROV-1, 48 h
SW-620 = assay: Growth inhibition of human SW620 cells after 48 hrs by SRB assay; assay type: functional; conditions: SW-620, 48 h
[8] = Growth inhibition of human HCT15 cells after 48 hrs by SRB assay; assay type: functional; conditions: HCT-15, 48 h
MDA-MB-435 = assay: Growth inhibition of human MDA-MB-435 cells after 48 hrs by SRB assay; assay type: functional; conditions: MDA-MB-435, 48 h
HOP-62 = assay: Growth inhibition of human HOP62 cells after 48 hrs by SRB assay; assay type: functional; conditions: HOP-62, 48 h
COLO 205 = assay: Growth inhibition of human COLO205 cells after 48 hrs by SRB assay; assay type: functional; conditions: COLO 205, 48 h
ACHN = assay: Growth inhibition of human ACHN cells after 48 hrs by SRB assay; assay type: functional
HCT-116 = assay: Growth inhibition of human HCT116 cells after 48 hrs by SRB assay; assay type: functional; conditions: HCT-116, 48 h
[9] = Growth inhibition of human HCC2998 cells after 48 hrs by SRB assay; assay type: functional; conditions: HCC 2998, 48 h
MDA-MB-231 = assay: Growth inhibition of human MDA-MB-231 cells after 48 hrs by SRB assay; assay type: functional; conditions: MDA-MB-231, 48 h
NCI-H226 = assay: Growth inhibition of human NCI-H226 cells after 48 hrs by SRB assay; assay type: functional; conditions: NCI-H226, 48 h
NCI-H460 = assay: Growth inhibition of human NCI-H460 cells after 48 hrs by SRB assay; assay type: functional; conditions: NCI-H460, 48 h
[10] = Growth inhibition of human EKVX cells after 48 hrs by SRB assay; assay type: functional
SN12C = assay: Growth inhibition of human SN12C cells after 48 hrs by SRB assay; assay type: functional
SR = assay: Growth inhibition of human SR cells after 48 hrs by SRB assay; assay type: functional
NCI-H322M = assay: Growth inhibition of human NCI-H322M cells after 48 hrs by SRB assay; assay type: functional
SK-OV-3 = assay: Growth inhibition of human SKOV3 cells after 48 hrs by SRB assay; assay type: functional; conditions: SK-OV-3, 48 h
[11] = Growth inhibition of human OVCAR5 cells after 48 hrs by SRB assay; assay type: functional; conditions: OVCAR-5, 48 h
NCI-H522 = assay: Growth inhibition of human NCI-H522 cells after 48 hrs by SRB assay; assay type: functional; conditions: NCI-H522, 48 h
SNB-75 = assay: Growth inhibition of human SNB75 cells after 48 hrs by SRB assay; assay type: functional; conditions: SNB-75, 48 h
SK-MEL-5 = assay: Growth inhibition of human SK-MEL-5 cells after 48 hrs by SRB assay; assay type: functional; conditions: SK-MEL-5, 48 h
MDA-MB-468 = assay: Growth inhibition of human MDA-MB-468 cells after 48 hrs by SRB assay; assay type: functional; conditions: MDA-MB-468, 48 h
K562 = assay: Growth inhibition of human K562 cells after 48 hrs by SRB assay; assay type: functional; conditions: K562, 48 h
[12] = Growth inhibition of human SF539 cells after 48 hrs by SRB assay; assay type: functional; conditions: SF-539, 48 h
PC-3 = assay: Growth inhibition of human PC3 cells after 48 hrs by SRB assay; assay type: functional; conditions: PC-3, 48 h
[13] = Growth inhibition of human NCI-ADR-RES cells after 48 hrs by SRB assay; assay type: functional
SK-MEL-2 = assay: Growth inhibition of human SK-MEL-2 cells after 48 hrs by SRB assay; assay type: functional; conditions: SK-MEL-2, 48 h
CCRF-CEM = assay: Growth inhibition of human CCRF-CEM cells after 48 hrs by SRB assay; assay type: functional
CAKI-1 = assay: Growth inhibition of human Caki1 cells after 48 hrs by SRB assay; assay type: functional; conditions: CAKI-1, 48 h
U-251 = assay: Growth inhibition of human U251 cells after 48 hrs by SRB assay; assay type: functional; conditions: U-251, 48 h
[14] = Growth inhibition of human OVCAR3 cells after 48 hrs by SRB assay; assay type: functional; conditions: OVCAR-3, 48 h
SK-MEL-28 = assay: Growth inhibition of human SK-MEL-28 cells after 48 hrs by SRB assay; assay type: functional; conditions: SK-MEL-28, 48 h
[15] = Growth inhibition of human MOLT4 cells after 48 hrs by SRB assay; assay type: functional; conditions: MOLT-4, 48 h
SF-268 = assay: Growth inhibition of human SF268 cells after 48 hrs by SRB assay; assay type: functional; conditions: SF-268, 48 h
786-0 = assay: Growth inhibition of human 786-0 cells after 48 hrs by SRB assay; assay type: functional; conditions: 786-0, 48 h
NCI-H23 = assay: Growth inhibition of human NCI-H23 cells after 48 hrs by SRB assay; assay type: functional; conditions: NCI-H23, 48 h
[16] = Growth inhibition of human OVCAR4 cells after 48 hrs by SRB assay; assay type: functional; conditions: OVCAR-4, 48 h
[17] = Growth inhibition of human LOXIMVI cells after 48 hrs by SRB assay; assay type: functional; conditions: LOX IMVI
A498 = assay: Growth inhibition of human A498 cells after 48 hrs by SRB assay; assay type: functional; conditions: A498, 48 h
A549 = assay: Growth inhibition of human A549 cells after 48 hrs by SRB assay; assay type: functional; conditions: A549, 48 h
HT-29 = assay: Growth inhibition of human HT-29 cells after 48 hrs by SRB assay; assay type: functional; conditions: HT-29, 48 h
M14 = assay: Growth inhibition of human M14 cells after 48 hrs by SRB assay; assay type: functional; conditions: M14, 48 h
[18] = Growth inhibition of human SF295 cells after 48 hrs by SRB assay; assay type: functional; conditions: SF-295, 48 h
Malme-3M = assay: Growth inhibition of human MALME-3M cells after 48 hrs by SRB assay; assay type: functional
[19] = Growth inhibition of human HOP92 cells after 48 hrs by SRB assay; assay type: functional; conditions: HOP-92, 48 h
[20] = Growth inhibition of human RXF393 cells after 48 hrs by SRB assay; assay type: functional; conditions: RXF 393, 48 h
MCF7 [21] = assay: Growth inhibition of human MCF7 cells after 48 hrs by SRB assay; assay type: functional; conditions: MCF7, 48 h
KM12 = assay: Growth inhibition of human KM12 cells after 48 hrs by SRB assay; assay type: functional; conditions: KM12, 48 h
[22] = Growth inhibition of human UACC257 cells after 48 hrs by SRB assay; assay type: functional; conditions: UACC-257, 48 h
[23] = Growth inhibition of human BT549 cells after 48 hrs by SRB assay; assay type: functional; conditions: BT-549, 48 h
[24] = Growth inhibition of human Hs578T cells after 48 hrs by SRB assay; assay type: functional; conditions: Hs-578T
TK-10 = assay: Growth inhibition of human TK10 cells after 48 hrs by SRB assay; assay type: functional; conditions: TK-10, 48 h
HL-60(TB) = assay: Growth inhibition of human HL-60(TB) cells after 48 hrs by SRB assay; assay type: functional; conditions: HL-60, 48 h
SNB-19 = assay: Growth inhibition of human SNB19 cells after 48 hrs by SRB assay; assay type: functional; conditions: SNB-19, 48 h
T47D = assay: Growth inhibition of human T47D cells after 48 hrs by SRB assay; assay type: functional
RPMI-8226 = assay: Growth inhibition of human RPMI8226 cells after 48 hrs by SRB assay; assay type: functional; conditions: RPMI-8226, 48 h
[25] = Growth inhibition of human UO31 cells after 48 hrs by SRB assay; assay type: functional; conditions: UO-31, 48 h

SMILES: COc1cccc2c1C(=O)c1c(O)c3c(c(O)c1C2=O)C[C@@](O)(C(=O)CO)C[C@@H]3O[C@H]1C[C@H](N)[C@H](O)[C@H](C)O1 [DOXORUBICIN]
- Activity (MCF7 [1]): 4%
- inhibition (MCF7 [2]): Active
- Activity (MCF7 [3]): 1.15%
- Activity (MCF7 [4]): Active
- Activity (MCF7 [5]): 94.85%

SMILES: COc1cc(C(=O)/C=C/c2c(-c3ccc(F)cc3)nc3ncccn23)cc(OC)c1OC
- GI50 [6]: 1740 nM
- GI50 [7]: 2690 nM
- GI50 (DU-145): 1630 nM
- GI50 (IGROV-1): 1930 nM
- GI50 (SW-620): 2090 nM
- GI50 [8]: 2110 nM
- GI50 (MDA-MB-435): 2360 nM
- Activity (MCF7 [1]): 21.89%
- GI50 (HOP-62): 3120 nM
- GI50 (COLO 205): 1700 nM
- GI50 (ACHN): 2210 nM
- GI50 (HCT-116): 1530 nM
- GI50 [9]: 1770 nM
- GI50 (MDA-MB-231): 2990 nM
- GI50 (NCI-H226): 3080 nM
- GI50 (NCI-H460): 1590 nM
- GI50 [10]: 2710 nM
- GI50 (SN12C): 2260 nM
- GI50 (SR): 2280 nM
- GI50 (NCI-H322M): 2070 nM
- GI50 (SK-OV-3): 2640 nM
- GI50 [11]: 2460 nM
- GI50 (NCI-H522): 2870 nM
- inhibition (MCF7 [2]): Active
- GI50 (SNB-75): 2390 nM
- GI50 (SK-MEL-5): 2220 nM
- GI50 (MDA-MB-468): 2750 nM
- GI50 (K562): 3030 nM
- GI50 [12]: 1550 nM
- GI50 (PC-3): 4350 nM
- GI50 [13]: 1580 nM
- GI50 (SK-MEL-2): 2380 nM
- GI50 (CCRF-CEM): 4050 nM
- GI50 (CAKI-1): 2060 nM
- GI50 (U-251): 1680 nM
- GI50 [14]: 1400 nM
- Activity (MCF7 [3]): 3.95%
- GI50 (SK-MEL-28): 3680 nM
- GI50 [15]: 3750 nM
- GI50 (SF-268): 1900 nM
- GI50 (786-0): 2760 nM
- GI50 (NCI-H23): 1580 nM
- GI50 [16]: 2930 nM
- GI50 [17]: 1570 nM
- GI50 (A498): 2200 nM
- GI50 (A549): 3340 nM
- GI50 (HT-29): 2520 nM
- GI50 (M14): 2160 nM
- GI50 [18]: 2430 nM
- GI50 (Malme-3M): 2840 nM
- GI50 [19]: 1770 nM
- GI50 [20]: 1440 nM
- GI50 (MCF7 [21]): 1610 nM
- GI50 (KM12): 1690 nM
- Activity (MCF7 [5]): 74.16%
- GI50 [22]: 3730 nM
- GI50 [23]: 1800 nM
- GI50 [24]: 2010 nM
- GI50 (TK-10): 3250 nM
- GI50 (HL-60(TB)): 3330 nM
- GI50 (SNB-19): 3120 nM
- GI50 (T47D): 2090 nM
- GI50 (RPMI-8226): 2560 nM
- GI50 [25]: 730 nM
